Source: US10336701B2, “Pyridin-2-one derivatives of formula (II) useful as EP3 receptor antagonists” (Janssen Pharmaceutica NV, priority 2017, dated 2019)

Key:
EP3 receptor [1] = biological target: T1, EP3 receptor (Homo sapiens, UniProt P43115); test: CHO cell cAMP assay (forskolin and sulprostone stimulated, HTRF); assay type: cell-based; details: CHO cells; sulprostone 700 nM (EC80) and FSK 2 μM (EC70), 37° C. for 30 minutes; read-out: CHO_cAMP IC50
T1 construct: purchased Millipore HTS092M
T1 sequence (P43115 1-390): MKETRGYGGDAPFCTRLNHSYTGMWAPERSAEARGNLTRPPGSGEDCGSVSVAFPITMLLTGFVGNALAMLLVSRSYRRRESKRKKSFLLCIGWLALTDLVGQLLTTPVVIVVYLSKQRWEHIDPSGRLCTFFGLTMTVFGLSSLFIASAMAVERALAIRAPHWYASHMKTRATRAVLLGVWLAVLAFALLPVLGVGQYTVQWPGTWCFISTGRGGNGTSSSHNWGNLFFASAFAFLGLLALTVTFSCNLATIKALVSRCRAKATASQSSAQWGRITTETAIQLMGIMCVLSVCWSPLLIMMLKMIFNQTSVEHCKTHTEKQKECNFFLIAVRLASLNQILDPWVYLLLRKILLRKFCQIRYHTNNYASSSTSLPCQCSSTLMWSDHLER
Protocol: For detection, a homogeneous competitive immunoassay (Time Resolved Fluorescence Energy Transfer (hTR-FRET)) was used.
Cells (6K cells per well) were plated in Poly-D-Lysine coated plates the day before the assay was to be run and were incubated at 37° C. […] At the start of the assay the buffer was removed from the cells and replaced with buffer containing test compound(s). Sulprostone at an EC80 dose (700 nM) and FSK at an EC70 dose (2 μM) were added to initiate the reaction (37° C. for 30 minutes).
FSK increases cAMP production and sulprostone decreases cAMP production produced by FSK. In this assay, EP3 antagonists will increase the cAMP to the level of cAMP generated by FSK alone.
Approximately one hour later the plates were read on an Envision (Perkin Elmer) in HTRF mode.
NSP, NSN, NSsample were converted to nM cAMP using the following equation: […]
IC50 values were determined from a […] (Hill equation) of a single 11-point compound dosing.

EP3 receptor [2] = biological target: T1, EP3 receptor; test: [3H]-PGE2 binding assay (EP3 competition binding); details: read-out: [3H]-PGE2 Binding Ki
Protocol: EP3 competition binding was determined using the following materials and experimental conditions:
Beads=Perkin Elmer RPNQ0001
EP3 membrane=Millipore HTS092M
Membrane concentration=2 μg/well
Beads concentration=0.25 mg/well
[3H]-PGE2=2 nM; DMSO—0.1%
Binding buffer=50 mM Tris, 10 mM MgCl2, 1 mM • EDTA, PH 7.4.
The binding buffer was removed from refrigeration (@ 4° C.) and allowed to warm to room temperature. Test compound (@ stock concentration of […] in DMSO) was serial dilutes (1:3) with 100% DMSO using Echo plate. Diluted test compound (30 nL) was dispensed to the 384-well assay plate (using Echo 550 Labcyte System). To each well was then added assay buffer (5 μl) and each well was spun. Beads were weighed out, dissolved in assay buffer to a concentration of 0.25 mg/15 μl. Original membrane was diluted with assay buffer to a concentration of 2 μg/5 μl. […] To each test well were then added diluted [3H]-PGE2 (5 μl), diluted membrane (5 μl), and dissolved beads (15 μl). The plate was equilibrated at room temperature on a plate shaker for 2 hours and then read with a TOPCOUNT scintillation plate reader. Results were analyzed using a Prism program with non-linear regression, one-site fit for Ki.

| Structure (SMILES) | IC50 (EP3 receptor [1]) [nM] | Ki (EP3 receptor [2]) [nM] |
| --- | --- | --- |
| CCC(/C=C1/OC(=O)NC1=O)(CC)c1ccc(-c2ccc3c(c2)OC(C)(C)C=C3)[nH]c1=O [compound 28, 5-(2-(6-(2,2-dimethyl-2H-chromen-7-yl)-2-oxo-1,2-dihydropyridin-3-yl)-2-ethylbutylidene)oxazolidine-2,4-dione] | > 20000 | 5620 |
| CC(C)C(CC(=O)Nc1nccs1)c1ccc(-c2ccc3cccc(F)c3c2)[nH]c1=O (stereo not drawn) [compound 254, 3-(6-(8-fluoronaphthalen-2-yl)-2-oxo-1,2-dihydropyridin-3-yl)-4-methyl-N-(thiazol-2-yl)pentanamide] | 2740 | 344 |
| O=c1[nH]c(-c2ccc3ccccc3c2)ccc1C1CCOCC1 [compound 192, 6-(naphthalen-2-yl)-3-(tetrahydro-2H-pyran-4-yl)pyridin-2(1H)-one] | 1330 | 60 |
| COc1ccc2cc(-c3ccc(C(C(=O)NCCN(C)C)C(C)C)c(=O)[nH]3)ccc2c1 (stereo not drawn) [compound 241] | 9630 | 637 |
| CC(C)C(C)(C(N)=O)c1ccc(-c2ccc3ccccc3c2)[nH]c1=O (stereo not drawn) [compound 232, 2,3-dimethyl-2-(6-(naphthalen-2-yl)-2-oxo-1,2-dihydropyridin-3-yl)butanamide] | 1630 | 125 |
| CONC1=NC(c2ccc(-c3ccc4cccc(F)c4c3)[nH]c2=O)(C(C)C)CN1 (stereo not drawn) [compound 292, (Z)-6-(8-fluoronaphthalen-2-yl)-3-(4-isopropyl-2-(methoxyimino)imidazolidin-4-yl)pyridin-2(1H)-one] | 6 | 2 |
| CC(C)C1(Cc2ccc(-c3ccc4cccc(F)c4c3)[nH]c2=O)OC(=O)NC1=O (stereo not drawn) [Compound #262, 5-((6-(8-fluoronaphthalen-2-yl)-2-oxo-1,2-dihydropyridin-3-yl)methyl)-5-isopropyloxazolidine-2,4-dione] | 282 | 152 |
| CC(C)/C(=C1/OC(=O)NC1=O)c1ccc(-c2ccc3cccc(F)c3c2)[nH]c1=O [Compound #303, (Z)-5-(1-(6-(8-fluoronaphthalen-2-yl)-2-oxo-1,2-dihydropyridin-3-yl)-2-methylpropylidene)oxazolidine-2,4-dione] | 1280 | 14 |
| CC(C)C1(c2ccc(-c3ccc4cccc(F)c4c3)[nH]c2=O)CNC(NC#N)=N1 (stereo not drawn) [compound 291, N-(4-(6-(8-fluoronaphthalen-2-yl)-2-oxo-1,2-dihydropyridin-3-yl)-4-isopropyl-4,5-dihydro-1H-imidazol-2-yl)cyanamide] | 19 | 3 |
| CC1(c2ccc(-c3ccc4ccccc4c3)[nH]c2=O)C(=O)Nc2nccn21 (stereo not drawn) [compound 153, 3-methyl-3-(6-(naphthalen-2-yl)-2-oxo-1,2-dihydropyridin-3-yl)-1H-imidazo[1,2-a]imidazol-2(3H)-one] | 400 | 43 |
| CCn1cnc2c(F)c(-c3ccc(C(C=C4OC(=O)NC4=O)C(C)C)c(=O)[nH]3)ccc21 (stereo not drawn) [compound 90, 5-(2-(6-(1-ethyl-4-fluoro-1H-benzo[d]imidazol-5-yl)-2-oxo-1,2-dihydropyridin-3-yl)-3-methylbutyli-dene)oxazolidine-2,4-dione] | 5430 | 633 |
| CC(C)C(C(=O)NCCN(C)C)c1ccc(-c2ccc3scnc3c2)[nH]c1=O (stereo not drawn) [compound 243, 2-(6-(benzo[d]thiazol-5-yl)-2-oxo-1,2-dihydropyridin-3-yl)-N-(2-(dimethylamino)ethyl)-3-methylbutanamide] | 14000 | 2600 |
| CCC(CC)(CC1OC(=O)NC1=O)c1ccc(-c2ccc3cccc(F)c3c2)[nH]c1=O (stereo not drawn) [compound 9, 5-(2-ethyl-2-(6-(8-fluoronaphthalen-2-yl)-2-oxo-1,2-dihydropyridin-3-yl)butyl)oxazolidine-2,4-dione] | 108 | 23 |
| Cc1cc(C(CC2OC(=O)NC2=O)C(C)C)c(=O)[nH]c1-c1ccc2cccc(F)c2c1 (stereo not drawn) [Compound #112] | 212 | 57 |
| CC1(c2ccc(-c3ccc4ccccc4c3)[nH]c2=O)CN/C(=N\O)N1 (stereo not drawn) [compound 288, 3-[(2E)-2-(hydroxyimino)-4-methylimidazolidin-4-yl]-6-(naphthalen-2-yl)-1,2-dihydropyridin-2-one] | 656 | 180 |

Results, then the compound that gave them:

| IC50 (EP3 receptor [1]) [nM] | Ki (EP3 receptor [2]) [nM] | Structure (SMILES) |
| --- | --- | --- |
| 44 | 11 | CCn1ncc2c(F)cc(-c3ccc(C(CC)(CC)CC4CCNC4=O)c(=O)[nH]3)cc21 (stereo not drawn) [compound 40, 6-(1-ethyl-4-fluoro-1H-indazol-6-yl)-3-(3-((2-oxopyrrolidin-3-yl)methyl)pentan-3-yl)pyridin-2(1H)-one] |
| 476 | 51 | CCN1CCOc2ccc(-c3ccc(C(C(C)C)N4CCS(=O)(=O)CC4)c(=O)[nH]3)cc21 (stereo not drawn) [Compound #169, 3-(1-(1,1-dioxidothiomorpholino)-2-methylpropyl)-6-(4-ethyl-3,4-dihydro-2H-benzo[b][1,4]oxazin-6-yl)pyridin-2(1H)-one] |
| 281 | 7 | CCn1ncc2c(F)cc(-c3ccc(C4CCN(S(=O)(=O)C(C)C)C4)c(=O)[nH]3)cc21 (stereo not drawn) [compound 213, 6-(1-ethyl-4-fluoro-1H-indazol-6-yl)-3-(1-(isopropylsulfonyl)pyrrolidin-3-yl)pyridin-2(1H)-one] |
| 1800 | 88 | CCn1ncc2c(F)cc(-c3ccc(C(CC)(CC)c4noc(=O)[nH]4)c(=O)[nH]3)cc21 [Compound #4] |
| 115 | 27 | CCn1ncc2c(F)cc(-c3ccc(C(CN4CCN(S(C)(=O)=O)CC4)C(C)C)c(=O)[nH]3)cc21 (stereo not drawn) [Compound #109, 6-(1-ethyl-4-fluoro-1H-indazol-6-yl)-3-(3-methyl-1-(4-(methylsulfonyl)piperazin-1-yl)butan-2-yl)pyridin-2(1H)-one] |
| 235 | 12 | CCn1ncc2c(F)cc(-c3ccc(C(CN4CCS(=O)(=O)CC4)C(C)C)c(=O)[nH]3)cc21 (stereo not drawn) [Compound #133, 4-{2-[6-(1-ethyl-4-fluoroindazol-6-yl)-2-oxo-1H-pyridin-3-yl]-3-methylbutyl},4-thiomorpholine-1,1-dione] |
| 23 | 2 | CONC(=O)CC(c1ccc(-c2ccc3cccc(F)c3c2)[nH]c1=O)C(C)C (stereo not drawn) [compound 257, 3-(6-(8-fluoronaphthalen-2-yl)-2-oxo-1,2-dihydropyridin-3-yl)-N-methoxy-4-methylpentanamide] |
| 22 | 3 | CCn1ncc2c(F)cc(-c3ccc(C(/C=C4\CCNC4=O)(CC)CC)c(=O)[nH]3)cc21 [compound 13, (E)-6-(1-ethyl-4-fluoro-1H-indazol-6-yl)-3-(3-((2-oxopyrrolidin-3-ylidene)methyl)pentan-3-yl)pyridin-2(1H)-one] |
| 249 | 34 | CC(C)C(c1ccc(-c2ccc3cccc(F)c3c2)[nH]c1=O)N(C)C(N)=O (stereo not drawn) [compound 265, 1-(1-(6-(8-fluoronaphthalen-2-yl)-2-oxo-1,2-dihydropyridin-3-yl)-2-methylpropyl)-1-methylurea] |
| 79 | 2 | CCn1ncc2c(F)cc(-c3ccc(C4(O)CCCN(S(=O)(=O)C(C)C)C4)c(=O)[nH]3)cc21 (stereo not drawn) [compound 295, 6-(1-ethyl-4-fluoro-1H-indazol-6-yl)-3-(3-hydroxy-1-(isopropylsulfonyl)piperidin-3-yl)pyridin-2(1H)-one] |
| 230 | 20 | CCn1ncc2c(F)cc(-c3ccc(C(CC)(CC)CC4OC(=O)NC4=O)c(=O)[nH]3)cc21 (stereo not drawn) [compound 56, 5-(2-ethyl-2-(6-(1-ethyl-4-fluoro-1H-indazol-6-yl)-2-oxo-1,2-dihydropyridin-3-yl)butyl)oxazolidine-2,4-dione] |
| 17 | 6 | CCn1ncc2c(F)cc(-c3ccc(C(/C=C4\CCNC4=O)(CC)CC)c(=O)[nH]3)cc21 [compound 16, 6-(1-ethyl-4-fluoro-indazol-6-yl)-3-[1-ethyl-1-[(E)-(2-oxopyrrolidin-3-ylidene)methyl]propyl]-1H-pyridin-2-one] |
